# Test results taken from US11891601B2, “Method to enhance the transcription regulation of SUPT4H on genes containing repetitive nucleotide sequences” (National Yang-Ming University, priority 2018, dated 2024).
# System: HD-Drosophila expressing mutant HTT97Q
# Experiment: Rough eye phenotype in HD-Drosophila (Gmr-HTT97Q)
# Type: in vivo, Drosophila melanogaster
# Settings: 10 μM 6CR plus 100 μM Tropolone in media
# Procedure: The Gmr-ga14-UAS-HTT97Q/cyo line expressing HTT97Q under the control of Gmr-gal4 in compound eyes was provided by MT SU (National Taiwan Normal University, Taipei, Taiwan). Fly stock was maintained and crossed at 25° C. on a standard cornmeal yeast agar medium.
# In each compound treatment experiment, 15 Gmr-ga14-UAS-HTT97Q/cyo male flies were crossed with 15 Gmr-ga14-UAS-HTT-97Q/cyo females in a vial containing 10 mL of media supplemented with the testing compound at a final concentration of 10 μM 6CR (Sigma) or/and 100 μM Tropolone (Sigma). 6-chloropurine riboside (6CR) is a chemical reagent that inhibits the activity of SUPT4H by preventing the complex formation of SUPT4H/SUPT5H (Patent No.: US2018/0064744A1). Parent flies were removed after 7 days, and 4-day-old progenies carrying one Gmr-ga14-UAS-HTT97Q allele were collected for eye morphology examination. […] In each treatment group, flies were analyzed and normalized with control flies. […]
# Please refer to FIG. 8. […] After parent fly removal, the 4-day-old progenies carrying one Gmr-ga14-UAS-HTT97Q allele were collected and analyzed for eye morphology. […] 4-day-old progenies as described above were collected and analyzed the levels of mutant HTT by Western blotting. α-tubulin was included and served as a loading control. […]
smiles,measurement,value
O=c1cccccc1O [Tropolone],rescue effect of rough eye phenotype by 6CR with co-treatment of Tropolone,greatly improved
